Measurements: patent US20020077356A1, “Nonsteroidal antiinflammatory agents” (priority 2000, published 2002)
Like-named read-outs stand apart in the source and are kept apart here.

Experiments:
[1] = tested on: tyrosinamino transferase (TAT); assay: induction of tyrosinamino transferase (TAT) activity in liver homogenates; conditions: liver homogenate 8 hours after administration, n-fold increase compared to untreated animals
Procedure: (§1) The activity of this enzyme can be determined photometrically from liver homogenates and represents a good yardstick of the undesirable metabolic actions of the glucocorticoids. To measure the TAT induction, the animals are sacrificed 8 hours after the test substances are administered, the livers are removed, and the TAT activity in the homogenate is measured.
(§2) As a parameter for the side effects of the steroid-induced catabolic metabolism, the activity of the enzyme tyrosinamino transferase (TAT) was determined from liver homogenates by photometry. The activity represents a good yardstick of the undesirable metabolic actions of the glucocorticoids. To measure the TAT induction, the animals are sacrificed 8 hours after the test substances are administered, the livers are removed, and the TAT activity in the homogenate is measured.

[2] = tested on: secretion of cytokine IL-8 in the human monocyte cell line THP-1; assay: inhibition of LPS-triggered IL-8 secretion in THP-1 cells; format: cell-based; design: Inhibition of IL-8 Secretion Effectiveness: concentration or dose not given beside the values; conditions: ELISA of supernatant
Procedure: The concentration of the cytokines was determined in the supernatant with use of commercially available ELISA kits.
The potency of the antiinflammatory action is determined in a cell test by the inhibition of the secretion of cytokine IL-8. […] The concentration of the cytokines was determined in the supernatant by means of commercially available ELISA kits. In this connection, the compounds of formula 1 show a high to very high potency and action in inhibition (see Table 10).

[3] = tested on: croton oil-induced inflammation in rats and mice; assay: croton oil-induced inflammation (ear edema); format: in vivo; conditions: systemically two hours before croton oil, ear weight after 16-24 hours
Procedure: The antiinflammatory actions of the compounds of general formula I were tested in the animal experiment by testing in the croton oil-induced inflammation in rats and mice (J. Exp. Med. (1995), 182, 99-108). In this connection, croton oil in ethanolic solution was administered topically to the animals' ears. The test substances were also administered topically or systemically simultaneously with or two hours before the croton oil. After 16-24 hours, the ear weight was measured as a yardstick of the inflammatory edema, the peroxidase activity was measured as a yardstick of the invasions of granuloctyes, and the elastase activity was measured as a yardstick of the invasions of neutrophilic granuloctyes. In this test, the compounds of general formula I inhibit the three above-mentioned inflammation parameters both after topical administration and after systemic administration.
The antiinflammatory actions of the compounds of general formula I were tested in the animal experiment in the croton oil-induced inflammation in rats and mice (J. Exp. Med. (1995), 182, 99-108). In this respect, croton oil in an ethanolic solution was administered topically to the ears in the animals. The test substances were systemically administered two hours before the croton oil. After 16-24 hours, the ear weight was measured as a yardstick of the inflammatory edema.

[4] = target: T1, glucocorticoid receptor (GR) (Homo sapiens, UniProt P04150); assay: glucocorticoid receptor (GR) binding test; conditions: cytosol preparations of Sf9 cells infected with recombinant baculoviruses coding for the GR; 10 nM [3H]-dexamethasone
T1 construct: made in house; host or cells: Sf9 insect cells infected with recombinant baculovirus; cytosol preparation
T1 sequence (P04150 1-777): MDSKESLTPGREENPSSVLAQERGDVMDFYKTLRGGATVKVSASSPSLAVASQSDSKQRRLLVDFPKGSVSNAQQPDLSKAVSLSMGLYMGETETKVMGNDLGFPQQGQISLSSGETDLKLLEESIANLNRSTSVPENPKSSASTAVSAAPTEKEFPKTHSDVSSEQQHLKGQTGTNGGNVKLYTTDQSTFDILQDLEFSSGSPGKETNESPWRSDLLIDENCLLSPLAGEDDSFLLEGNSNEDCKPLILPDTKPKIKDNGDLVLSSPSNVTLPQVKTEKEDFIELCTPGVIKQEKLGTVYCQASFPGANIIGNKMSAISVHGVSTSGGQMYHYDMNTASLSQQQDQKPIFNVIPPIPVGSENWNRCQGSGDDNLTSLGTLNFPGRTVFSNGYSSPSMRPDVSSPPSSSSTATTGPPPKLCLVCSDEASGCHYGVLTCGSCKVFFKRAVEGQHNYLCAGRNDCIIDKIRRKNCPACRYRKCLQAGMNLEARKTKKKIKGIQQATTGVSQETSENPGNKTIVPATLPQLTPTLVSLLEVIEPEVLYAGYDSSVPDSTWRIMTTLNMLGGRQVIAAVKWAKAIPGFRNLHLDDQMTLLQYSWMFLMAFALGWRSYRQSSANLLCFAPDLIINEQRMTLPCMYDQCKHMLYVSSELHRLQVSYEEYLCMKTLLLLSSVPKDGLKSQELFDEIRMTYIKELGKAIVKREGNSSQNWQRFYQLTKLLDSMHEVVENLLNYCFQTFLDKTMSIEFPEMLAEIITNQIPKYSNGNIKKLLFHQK
Text: The binding of substances to the glucocorticoid receptor (GR) is examined with the aid of a recombinantly produced receptor. Cytosol preparations of Sf9 cells, which had been infected with recombinant baculoviruses, which code for the GR, are used for the binding studies.

[5] = tested on: tyrosinamino transferase (TAT); conditions: in vivo
Procedure: as §1, §2

SMILES	Induction factor for TAT with 3 mg/kg ([1]; 3 mg/kg)	Induction factor for TAT with 30 mg/kg ([1]; 30 mg/kg)	Inhibition of IL-8 Secretion Effectiveness [2]	IC50 ([2]; Homo sapiens)	Edema inhibition with 3 mg/kg [3]	Edema inhibition with 30 mg/kg [3]	IC50 [2]	IC50 [4]	Induction factor for TAT with 3 mg/kg [5]	Induction factor for TAT with 30 mg/kg [5]
C[C@]12C=CC(=O)C=C1CC[C@@H]1[C@@H]2[C@@H](O)C[C@@]2(C)[C@H]1CC[C@]2(O)C(=O)CO [Prednisolone, reference compound]	2.6	8.0	95%	24 nM	35%	84%	–	–	–	–
Cc1noc(=O)c2ccc(NC(=O)C(O)(CC3(c4cc(F)ccc4C(F)(F)F)CCC3)C(F)(F)F)cc12 (single isomer, unassigned; (+)) [Example 16, compound 33, (+)-6-[3-{1-(5-fluoro-2-trifluoromethyl-phenyl)-cyclobutyl}-2-hydroxy-2-trifluoromethylpropionyl]-amino-4-methyl-2,3-benzoxazin-1-one]	–	–	45%	–	77%	86%	30 nM	1.1 nM	–	–
Cc1noc(=O)c2ccc(NC(=O)C(O)(CC3(c4ccccc4C(F)(F)F)CCC3)C(F)(F)F)cc12 (single isomer, unassigned; (+)) [Example 16, compound 26, (+)-6-[3-{1-(2-trifluoromethyl-phenyl)-cyclobutyl}-2-hydroxy-2-trifluoromethylpropionyl]-amino-4-methyl-2,3-benzoxazin-1-one]	–	–	77%	–	11%	81%	4.3 nM	16 nM	1.4	3.7
Cc1noc(=O)c2ccc(NC(=O)C(O)(CC3(c4cc(F)ccc4Cl)CC3)C(F)(F)F)cc12 (single isomer, unassigned; (+)) [Example 16, compound 13, (+)-6-[3-{1-(2-chloro-5-fluorophenyl)-cyclopropyl}-2-hydroxy-2-trifluoromethyl-propionyl]-amino-4-methyl-2,3-benzoxazin-1-one]	–	–	58%	–	47%	106%	9.6 nM	< 0.3 nM	–	–
Cc1noc(=O)c2ccc(NC(=O)C(O)(CC(C)(C)c3ccc(F)cc3Cl)C(F)(F)F)cc12 (single isomer, unassigned; (+)) [Example 3, compound 9, (+)-6-[4-(2-chloro-4-fluoro-phenyl)-2-hydroxy-4-methyl-2-trifluoromethylvaleroyl]-amino-4-methyl-2,3-benzoxazin-1-one]	–	–	51%	–	50%	92%	65 nM	< 0.3 nM	–	–
Cc1noc(=O)c2ccc(NC(=O)C(O)(CC3(c4cc(F)ccc4Cl)CCC3)C(F)(F)F)cc12 (single isomer, unassigned; (+)) [Example 16, compound 16, (+)-6-[3-{1-(2-chloro-5-fluorophenyl)-cyclobutyl}-2-hydroxy-2-trifluoromethyl-propionyl]-amino-4-methyl-2,3-benzoxazin-1-one]	–	–	80%	–	54%	78%	10 nM	0.62 nM	1.3	2.0
